Results published in patent publication US20260028354A1, “TETRAHYDRONAPHTHALENE DERIVATIVES AS ESTROGEN RECEPTOR DEGRADERS” (REGENT OF THE UNIVERSITY OF MICHIGAN, priority 2022, published 2026).
pIC50: −log10 of the molar value. Read-outs that look alike come from different tables or passages of the source.

Tests used:
CRBN/DDB1 = CRBN/DDB1 (Homo sapiens (Human), UniProt Q96SW2); assay type: binding; conditions: His tagged CRBN+DDB1, Cy5-labeled Thalidomide probe, one hour; read-out: CRBN HTRF IC50
Sequence of CRBN/DDB1 (Q96SW2 whole entry, species assumed): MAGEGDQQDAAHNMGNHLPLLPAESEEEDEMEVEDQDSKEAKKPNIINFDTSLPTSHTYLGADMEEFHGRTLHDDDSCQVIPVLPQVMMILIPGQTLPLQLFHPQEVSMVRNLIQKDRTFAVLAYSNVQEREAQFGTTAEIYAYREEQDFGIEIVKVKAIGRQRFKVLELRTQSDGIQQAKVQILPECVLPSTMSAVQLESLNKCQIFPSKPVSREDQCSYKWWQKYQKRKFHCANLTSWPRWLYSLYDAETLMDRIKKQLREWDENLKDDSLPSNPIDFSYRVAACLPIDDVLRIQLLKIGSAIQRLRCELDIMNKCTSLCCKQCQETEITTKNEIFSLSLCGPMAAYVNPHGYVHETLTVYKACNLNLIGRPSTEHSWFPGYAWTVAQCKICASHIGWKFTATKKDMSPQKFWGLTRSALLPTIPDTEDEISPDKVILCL
Sequence of CRBN/DDB1 (Q16531 whole entry partner, species assumed): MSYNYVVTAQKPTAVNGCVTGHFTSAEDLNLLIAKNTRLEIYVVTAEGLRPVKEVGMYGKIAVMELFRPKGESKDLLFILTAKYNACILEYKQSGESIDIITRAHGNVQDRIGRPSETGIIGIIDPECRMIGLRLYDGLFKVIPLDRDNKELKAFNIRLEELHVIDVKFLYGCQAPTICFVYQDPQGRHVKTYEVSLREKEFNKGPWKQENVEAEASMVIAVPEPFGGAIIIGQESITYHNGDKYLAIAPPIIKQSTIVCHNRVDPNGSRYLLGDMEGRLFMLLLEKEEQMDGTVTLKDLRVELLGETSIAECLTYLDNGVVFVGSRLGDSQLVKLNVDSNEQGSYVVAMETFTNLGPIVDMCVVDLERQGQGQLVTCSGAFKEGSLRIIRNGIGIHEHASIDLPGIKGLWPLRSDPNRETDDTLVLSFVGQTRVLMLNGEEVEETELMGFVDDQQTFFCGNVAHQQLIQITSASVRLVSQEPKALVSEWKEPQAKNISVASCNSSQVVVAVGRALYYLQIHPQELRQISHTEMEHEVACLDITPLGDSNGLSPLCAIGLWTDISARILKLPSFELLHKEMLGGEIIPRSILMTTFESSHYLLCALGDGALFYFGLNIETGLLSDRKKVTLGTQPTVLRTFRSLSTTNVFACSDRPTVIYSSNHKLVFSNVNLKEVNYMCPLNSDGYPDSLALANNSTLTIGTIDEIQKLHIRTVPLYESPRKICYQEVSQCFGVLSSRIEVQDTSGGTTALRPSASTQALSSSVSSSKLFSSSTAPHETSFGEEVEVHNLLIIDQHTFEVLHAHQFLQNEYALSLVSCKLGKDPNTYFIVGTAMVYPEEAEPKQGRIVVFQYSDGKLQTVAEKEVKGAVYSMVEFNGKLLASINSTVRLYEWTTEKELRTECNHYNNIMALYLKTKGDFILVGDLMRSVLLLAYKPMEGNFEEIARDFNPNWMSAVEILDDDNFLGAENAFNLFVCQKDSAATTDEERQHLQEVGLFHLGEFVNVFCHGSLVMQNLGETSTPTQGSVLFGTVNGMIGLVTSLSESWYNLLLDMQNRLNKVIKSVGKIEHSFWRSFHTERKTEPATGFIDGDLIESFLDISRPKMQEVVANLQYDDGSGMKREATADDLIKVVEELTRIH
Experimental: The binding potency was determined using HTRF assay technology (Perkin Elmer). Compounds were serially diluted in DMSO and […] volume was transferred to white 384-well plate.

ER in T47D cells = ER in T47D cells (Homo sapiens (Human), UniProt P03372); assay: In-cell Western (ICW) ER degradation assay in T47D cells; assay type: cell-based; conditions: 16 hrs treatment; for DC50: ER degradation; for T47D Dmax: maximal ER degradation
Sequence of ER in T47D cells (P03372 whole entry): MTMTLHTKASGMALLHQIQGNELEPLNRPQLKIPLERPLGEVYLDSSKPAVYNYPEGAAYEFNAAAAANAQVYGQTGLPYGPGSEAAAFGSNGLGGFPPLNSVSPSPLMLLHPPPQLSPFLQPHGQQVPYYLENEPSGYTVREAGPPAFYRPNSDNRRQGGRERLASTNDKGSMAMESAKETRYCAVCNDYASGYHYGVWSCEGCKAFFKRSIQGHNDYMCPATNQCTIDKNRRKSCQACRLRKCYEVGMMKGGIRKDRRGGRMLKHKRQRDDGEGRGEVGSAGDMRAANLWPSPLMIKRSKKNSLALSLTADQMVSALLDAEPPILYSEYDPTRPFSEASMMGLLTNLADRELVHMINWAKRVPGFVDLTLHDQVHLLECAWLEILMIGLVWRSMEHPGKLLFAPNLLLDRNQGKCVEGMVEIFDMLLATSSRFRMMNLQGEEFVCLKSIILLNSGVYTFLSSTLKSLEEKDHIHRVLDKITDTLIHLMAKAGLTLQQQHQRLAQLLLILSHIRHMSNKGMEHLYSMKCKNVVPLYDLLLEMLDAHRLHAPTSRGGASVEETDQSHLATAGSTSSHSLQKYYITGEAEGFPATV
Text: In-cell Western (ICW) assays in MCF-7 and T47D cell lines.
Day 3: After 16 hrs of compounds treatment, cells were fixed by 4% PFA and permeabilized with elution buffer (0.1% Triton X-100 in 1% PBS Solution). Subsequently, cells were blocked with Intercept (PBS) Blocking Buffer (Li-COR, Odyssey Blocking Buffer), and were stained with ER (1:500, Cell signaling) primary antibody for overnight at cold room.
Day 4: Remove the buffer, add IRDye 800CW Goat anti-Rabbit IgG Secondary Antibody (1:2000) and CellTag 700 Stain (1:500) in Intercept (PBS) Blocking Buffer. Finally, cell plate is placed in incubator to dry. Image and signal were captured on Odyssey® DLx Imaging System.

ER in MCF-7 cells = ER in MCF-7 cells (Homo sapiens (Human), UniProt P03372); assay: In-cell Western (ICW) ER degradation assay in MCF-7 cells; assay type: cell-based; conditions: for DC50: MCF-7, ER degradation, read-out: MCF7 DC50
Sequence of ER in MCF-7 cells (P03372 whole entry): as above

| Molecule | pIC50 (CRBN/DDB1) | DC50 (ER in T47D cells) | T47D Dmax (ER in T47D cells) | Dmax (ER in MCF-7 cells; MCF7, read-out: MCF7 Dmax, MCF-7, maximal ER degradation, 16 hrs treatment) | DC50 (ER in MCF-7 cells; 16 hrs treatment) | MCF7 Dmax (ER in MCF-7 cells; MCF-7, maximal ER degradation, 16 hrs treatment) | Dmax (ER in MCF-7 cells; MCF7, MCF-7, maximal ER degradation, 16 hrs treatment, read-out: MCF7 Dmax) |
| --- | --- | --- | --- | --- | --- | --- | --- |
| O=C1CC[C@H](N2Cc3cc4c(cc3C2=O)OCC42CCN(CC3CC4(CCN(c5ccc([C@H]6c7ccc(O)cc7CC[C@H]6c6ccccc6)cn5)CC4)C3)CC2)C(=O)N1 [Compound A125, (S)-3-(1′-((7-(5-((1R,2R)-6-hydroxy-2-phenyl-1,2,3,4-tetra-hydronaphthalen-1-yl)pyridin-2-yl)-7-azaspiro[3.5]nonan-2-yl)methyl)-7-oxo-5,7-dihydro-2H,6H-spiro[furo[2,3-f]iso-indole-3,4′-piperidin]-6-yl)-piperidine-2,6-dionc] | 6.30 to 7.30 | 10 to 100 nM | B (“B”: >50 and <75%) | – | – | – | – |
| COc1cc(C2c3ccc(O)cc3CCC2c2ccccc2)c(F)cc1N1CCC(CN2CCN3c4ccc5c(c4OC[C@H]3C2)CN([C@H]2CCC(=O)NC2=O)C5=O)CC1 (stereo in doubt) [Compound A97, (S)-3-((R)-7-((1-(5-fluoro-4-((1R,2R)-6-hydroxy-2-phenyl-1,2,3,4-tetrahydronaphthalen-1-yl)-2-methoxyphenyl)piperidin-4-yl)methyl)-1-oxo-1,3,5,5a,6,7,8,9-octahydro-2H-pyrazino[1′,2′: 4,5][1,4]oxazino[2,3-e]isoindol-2-yl)piperidine-2,6-dione] | 6.30 to 7.30 | 1 to 10 nM | A (“A”: >=75%) | – | – | – | – |
| O=C1CC[C@H](N2Cc3c(ccc4c3OC[C@H]3CN(CC5CC6COCC(C5)N6c5ccc([C@@H]6c7ccc(O)cc7CC[C@@H]6c6ccccc6)cc5)CCN43)C2=O)C(=O)N1 (stereo partly drawn) [Compound A83, (3S)-3-((5aR)-7-((9-(4-((1R, 2S)-6-hydroxy-2-phenyl-1,2,3,4-tetrahydronaphthalen-1-yl)phenyl)-3-oxa-9-azabi-cyclo[3.3.1]nonan-7-yl)meth-yl)-1-oxo-1,3,5,5a,6,7,8,9-octa-hydro-2H-pyrazino[1′,2′:4,5] [1,4]oxazino[2,3-e]isoindol-2-yl)piperidine-2,6-dione] | 6.30 to 7.30 | < 1 nM | B (“B”: >50 and <75%) | – | – | – | – |
| O=C1CC[C@H](N2Cc3c(ccc4c3OCC43CCN(CC4CC5(CCN(c6ncc([C@@H]7c8ccc(O)cc8CC[C@@H]7c7ccccc7)cn6)CC5)C4)CC3)C2=O)C(=O)N1 [Compound A142, (S)-3-(1′-((7-(5-((1S,2S)-6-hydroxy-2-phenyl-1,2,3,4-tetrahydronaphthalen-1-yl)pyrimidin-2-yl)-7-azaspiro[3.5]nonan-2-yl)methyl)-6-oxo-6,8-dihydro-2H,7H-spiro[furo[2,3-e]isoindole-3,4′-piperidin]-7-yl)piperidine-2,6-dione] | > 7.30 | – | – | 50 to 75% | < 1 nM | – | – |
| COc1cc([C@@H]2c3ccc(O)cc3CC[C@@H]2c2ccccc2)c(F)cc1N1CCC(CN2CCN3c4ccc5c(c4OC[C@H]3C2)CN([C@H]2CCC(=O)NC2=O)C5=O)CC1 (single isomer, unassigned) [Compound A98] | 6.30 to 7.30 | 10 to 100 nM | C (“C”: 25-50%) | – | – | – | – |
| (S)-3-((3-fluoro-4-(1-((1-(2-fluoro-4-((1S,2S)-6-hydroxy-2-phenyl-1,2,3,4-tetrahydronaphthalen-1-yl)-5-methoxyphenyl)piperidin-4-yl)methyl)piperidin-4-yl)phenyl)amino)piperidine-2,6-dione [Compound A120] | 5.30 to 6.30 | – | – | – | 10 to 100 nM | C (“C”: 25-50%) | – |
| O=C1CC[C@H](N2Cc3c(ccc4c3OC[C@H]3CN(CCCOC5CN(c6ccc([C@@H]7c8ccc(O)cc8CC[C@@H]7c7ccccc7)cc6)C5)CCN43)C2=O)C(=O)N1 [Compound A78, (S)-3-((R)-7-(3-((1-(4-((1R,2S)-6-hydroxy-2-phenyl-1,2,3,4-tetrahydronaphthalen-1-yl)-phenyl)azetidin-3-yl)oxy)prop-yl)-1-oxo-1,3,5,5a,6,7,8,9-octa-hydro-2H-pyrazino[1′,2′:4,5] [1,4]oxazino[2,3-e]isoindol-2-yl)piperidine-2,6-dione] | > 7.30 | – | – | – | < 1 nM | – | 50 to 75% |
